Tests used:
SK-MEL3 = test: Anticancer activity against human SK-MEL3 cells assessed as reduction in cell viability incubated for 72 hrs by MTT assay; assay type: functional, cell-based; conditions: SK-MEL3, 72 h
MCF7 = test: Anticancer activity against human MCF7 cells assessed as reduction in cell viability incubated for 72 hrs by MTT assay; assay type: functional, cell-based; conditions: MCF7, 72 h
A-431 = test: Anticancer activity against human A-431 cells assessed as reduction in cell viability incubated for 72 hrs by MTT assay; assay type: functional, cell-based; conditions: A-431, 72 h
EJ = test: Anticancer activity against human EJ cells assessed as reduction in cell viability incubated for 72 hrs by MTT assay; assay type: functional, cell-based
KB = test: Anticancer activity against human KB cells assessed as reduction in cell viability incubated for 72 hrs by MTT assay; assay type: functional, cell-based
SW480 = test: Anticancer activity against human SW480 cells assessed as reduction in cell viability incubated for 72 hrs by MTT assay; assay type: functional, cell-based; conditions: SW480, 72 h
[1] = test system: Panel NCI-60 (60 carcinoma cell lines); test: Anticancer activity against human Panel NCI-60 (60 carcinoma cell lines) cells assessed as cell growth inhibition incubated for 48 hrs by sulforhodamine B assay; assay type: functional
A549 [2] = test: Anticancer activity against human A549 cells assessed as reduction in cell viability incubated for 72 hrs by MTT assay; assay type: functional, cell-based; conditions: A549, 72 h
HL-60 [3] = test: Anticancer activity against human HL-60 cells assessed as reduction in cell viability incubated for 72 hrs by MTT assay; assay type: functional, cell-based; conditions: HL-60, 72 h
HeLa = test: Anticancer activity against human HeLa cells assessed as reduction in cell viability incubated for 72 hrs by MTT assay; assay type: functional, cell-based
[4] = Cytotoxicity against Chinese hamster CHO cells assessed as reduction in cell viability by MTT assay; assay type: toxicity, cell-based, Cricetulus griseus
HL-60 [5] = test: Cytotoxicity against human HL-60 cells assessed as reduction in cell viability by MTT assay; assay type: functional, cell-based
L1210 = test: Cytotoxicity against mouse L1210 cells assessed as reduction in cell viability by MTT assay; assay type: functional, cell-based
CT26 = test: Antitumor activity against mouse CT26 cells assessed as reduction in cell viability incubated for 4 hrs by MTT assay; assay type: functional, cell-based; conditions: CT26, 4 h
A549 [6] = test: Antitumor activity against human A549 cells assessed as reduction in cell viability incubated for 4 hrs by MTT assay; assay type: functional, cell-based; conditions: A549, 4 h

Work on `CCn1cc(C(=O)O)c(=O)c2cc(F)c(N3CCN(C/C(=N/OC)c4ccc(Cl)s4)CC3)nc21` yielded an IC50 (SK-MEL3) of under 10 µM, an IC50 (MCF7) of under 10 µM and an IC50 (A-431) of under 10 µM. For the same compound, the IC50 (EJ) was under 10 µM, the IC50 (KB) was under 10 µM and the IC50 (SW480) was under 10 µM.
For `O=C(O)c1cn(C2CC2)c2cc(N3CCN(C/C(=N/OCc4ccccc4)c4ccc(Cl)s4)CC3)c(F)cc2c1=O`, the IC50 (SK-MEL3) was under 10 µM, the IC50 (MCF7) was under 10 µM and the IC50 (A-431) was under 10 µM. For the same compound, the IC50 (EJ) was under 10 µM, the IC50 (KB) was under 10 µM and the IC50 (SW480) was under 10 µM.
Work on `CCn1cc(C(=O)O)c(=O)c2cc(F)c(N3CCN(C/C(=N/OCc4ccccc4)c4ccc(Cl)s4)CC3)cc21` yielded an IC50 (SK-MEL3) of under 10 µM, an IC50 (MCF7) of under 10 µM and an IC50 (A-431) of under 10 µM. For the same compound, the IC50 (EJ) was under 10 µM, the IC50 (KB) was under 10 µM and the IC50 (SW480) was under 10 µM.
With `O=C(O)c1cn(C2CC2)c2cc(N3CCN(S(=O)(=O)c4ccc(Cl)c(Cl)c4)CC3)c(F)cc2c1=O` the GI50 [1] was 2.63 µM.
`Cc1ccc(S(=O)(=O)NC(=N)N2CCN(c3cc4c(cc3F)c(=O)c(C(=O)O)cn4C3CC3)CC2)cc1` gave an IC50 (A549 [2]) of 0.071 µM, an IC50 (HL-60 [3]) of 0.043 µM and an IC50 (HeLa) of 0.032 µM.
In the case of `COc1cc(/C=N/NC(=O)c2cn(C3CC3)c3cc(N4CCNCC4)c(F)cc3c2=O)cc(OC)c1OC`, the IC50 [4] is reported as 25 µM, the IC50 (HL-60 [5]) is reported as 25 µM and the IC50 (L1210) is reported as 25 µM.
Compound `CCn1cc(C(=O)O)c(=O)c2cc(F)c(N3CCN(C(=N)NS(=O)(=O)c4ccc(Cl)cc4)CC3)cc21` has an IC50 (A549 [2]) of 0.071 µM, an IC50 (HL-60 [3]) of 0.043 µM and an IC50 (HeLa) of 0.032 µM.
Compound `C#Cc1cccc(Nc2ncnc3cc(OCCOC)c(OCCOC)cc23)c1` [ERLOTINIB] has a GI50 [1] of 7.29 µM.
With `CCn1cc(C(=O)O)c(=O)c2cc(F)c(N3CCN(C(=N)NS(=O)(=O)c4ccccc4)CC3)cc21` the IC50 (A549 [2]) was 0.071 µM, the IC50 (HL-60 [3]) was 0.043 µM and the IC50 (HeLa) was 0.032 µM.
For `CCn1cc(C(=O)O)c(=O)c2cc(F)c(N3CCN(C/C(=N/O)c4ccc(Cl)s4)CC3)cc21`, the IC50 (SK-MEL3) was under 10 µM, the IC50 (MCF7) was under 10 µM and the IC50 (A-431) was under 10 µM. The IC50 (EJ) was under 10 µM, the IC50 (KB) was under 10 µM and the IC50 (SW480) was under 10 µM.
`N=C(NS(=O)(=O)c1ccc(C(F)(F)F)cc1)N1CCN(c2cc3c(cc2F)c(=O)c(C(=O)O)cn3C2CC2)CC1` showed an IC50 (A549 [2]) of 0.071 µM, an IC50 (HL-60 [3]) of 0.043 µM and an IC50 (HeLa) of 0.032 µM.
`N=C(NS(=O)(=O)c1ccccc1Cl)N1CCN(c2cc3c(cc2F)c(=O)c(C(=O)O)cn3C2CC2)CC1` showed an IC50 (A549 [2]) of 0.071 µM, an IC50 (HL-60 [3]) of 0.043 µM and an IC50 (HeLa) of 0.032 µM.
`O=C(N/N=C/c1ccc([N+](=O)[O-])cc1)c1cn(C2CC2)c2cc(N3CCNCC3)c(F)cc2c1=O` gave an IC50 [4] of 25 µM, an IC50 (HL-60 [5]) of 25 µM and an IC50 (L1210) of 25 µM.
`CCn1cc(C(=O)O)c(=O)c2cc(F)c(N3CCN(C(=N)NS(=O)(=O)c4cccc(Cl)c4)CC3)cc21` gave an IC50 (A549 [2]) of 0.071 µM, an IC50 (HL-60 [3]) of 0.043 µM and an IC50 (HeLa) of 0.032 µM.
`COc1ccc(C(=O)CN2CCN(c3cc4c(cc3F)c(=O)c(C(=O)O)cn4-c3ccc(N)cc3F)CC2)cc1` showed a GI50 [1] of 22 µM.
Work on `CCn1cc(C(=O)O)c(=O)c2cc(F)c(N3CCN(S(=O)(=O)c4ccc(Cl)cc4)CC3)cc21` yielded a GI50 [1] of 2.63 µM.
`N=C(NS(=O)(=O)c1ccccc1C(F)(F)F)N1CCN(c2cc3c(cc2F)c(=O)c(C(=O)O)cn3C2CC2)CC1` gave an IC50 (A549 [2]) of 0.071 µM, an IC50 (HL-60 [3]) of 0.043 µM and an IC50 (HeLa) of 0.032 µM.
Work on `O=c1[nH]cc(F)c(=O)[nH]1` [FLUOROURACIL] yielded a GI50 [1] of 22.6 µM.
Compound `CCn1cc(C(=O)O)c(=O)c2cc(F)c(N3CCN(CP(=[Se])(c4ccccc4)c4ccccc4)CC3)cc21` has an IC50 (CT26) of 150 µM and an IC50 (A549 [6]) of 150 µM.
In the case of `CCn1cc(C(=O)O)c(=O)c2cc(F)c(N3CCN(C(=N)NS(=O)(=O)c4ccc(C)cc4)CC3)cc21`, the IC50 (A549 [2]) is reported as 0.071 µM, the IC50 (HL-60 [3]) is reported as 0.043 µM and the IC50 (HeLa) is reported as 0.032 µM.
In the case of `O=C(O)c1cn(C2CC2)c2cc(N3CCN(CP(=O)(c4ccccc4)c4ccccc4)CC3)c(F)cc2c1=O`, the IC50 (CT26) is reported as 150 µM and the IC50 (A549 [6]) is reported as 150 µM.
In the case of `O=C(O)c1cn(C2CC2)c2cc(N3CCN(CP(c4ccccc4)c4ccccc4)CC3)c(F)cc2c1=O`, the IC50 (CT26) is reported as 150 µM and the IC50 (A549 [6]) is reported as 150 µM.
`O=C(CN1CCN(c2cc3c(cc2F)c(=O)c(C(=O)O)cn3C2CC2)CC1)c1ccc(Cl)s1` gave an IC50 (SK-MEL3) of under 10 µM, an IC50 (MCF7) of under 10 µM and an IC50 (A-431) of under 10 µM. It also gave an IC50 (EJ) of under 10 µM, an IC50 (KB) of under 10 µM and an IC50 (SW480) of under 10 µM.
For `N=C(NS(=O)(=O)c1ccccc1)N1CCN(c2cc3c(cc2F)c(=O)c(C(=O)O)cn3C2CC2)CC1`, the IC50 (A549 [2]) was 0.071 µM, the IC50 (HL-60 [3]) was 0.043 µM and the IC50 (HeLa) was 0.032 µM.
With `CCn1cc(C(=O)O)c(=O)c2cc(F)c(N3CCN(CC(=O)c4ccc(Cl)s4)CC3)nc21` the IC50 (SK-MEL3) was under 10 µM, the IC50 (MCF7) was under 10 µM and the IC50 (A-431) was under 10 µM. For the same compound, the IC50 (EJ) was under 10 µM, the IC50 (KB) was under 10 µM and the IC50 (SW480) was under 10 µM.
